Reference: US20080031912A1, “METHOD FOR CONTROLLING CELL MIGRATION ON A SURFACE” (THE REGENTS OF THE UNIVERSITY OF CALIFORNIA, priority 2006, published 2008)

Key:
NIH 3T3 cells [1] = assay: Cell spreading on coated tissue culture dishes (time-lapse microscopy); assay type: cell-based; conditions: surface coated with 1 μg/cm2; observed over 8 hours (3, 6, 8 hours post-plating)
Method: (§1) Cell Culture. NIH 3T3 cells were cultured in DMEM supplemented with 10% calf serum, 1% sodium pyruvate, 1% L-glutamine, 1% penicillin/streptomycin, and maintained in a humidified 5% CO2/95% air incubator at 37° C. Wildtype and pik3R2^−/− MEF cell lines were maintained in DMEM supplemented with 15% FBS and 1% penicillin/streptomycin, and maintained in a humidified 5% CO2, 95% air incubator at 37° C.
(§2) Imaging. NIH 3T3 cells were maintained in complete media (described above) for all experiments. Imaging was done on a Nikon Diaphot 300 inverted microscope with a Hamamatsu Orca ER digital camera controlled by IP lab software (Scanalytics). Images were captured under 10× and 20× phase-contrast microscopy. The cells were under temperature and gas control throughout the duration of the experiments (5% CO2, 95% air, 37° C.). MEF cells were maintained in complete media for all experiments. Imaging was done on a Nikon Diaphot 300 inverted microscope with a Hamamatsu Orca ER digital camera controlled by IP lab, or Metamorph imaging software. Images were captured under 20× and 40× differential interference microscopy (DIC), or fluorescence microscopy. The cells were under temperature and gas control throughout the duration of live cell imaging experiments (5% CO2, 95% air, 37° C.). […]

NIH 3T3 cells [2] = assay: Cell migration onto coated half of tissue culture dish; assay type: cell-based; conditions: right half of dish coated with 1 μg/cm^2 of each protein; cells seeded on uncoated half, 7 days
Method: as §1, §2

fibronectin [FN]
cell spreading on coated surface (NIH 3T3 cells [1]): spread efficiently | cell migration onto coated surface (NIH 3T3 cells [2]): robust migration
